Measurements as given in publication PMC12797170, “Potent Competitive Inhibitors of Ecto-5′-nucleotidase (CD73) based on 6‑(Het)aryl-7-deazapurine Ribonucleoside 5′‑O‑Bisphosphonates” (ACS Pharmacology & Translational Science, 2025).
Values after ≈ are worked out from the molar mass of the structure shown.

What was measured:
[1] = Microsomal stability assay, human liver microsomes; assay type: in vitro ADME; settings: for microsomal CLint at 10 µM: pooled liver microsomes, pH 7.4, read-out: Mics (hu) CLint; for Mics (hu) comp remaining 60 min: 10 μM
[2] = Plasma protein binding, equilibrium dialysis, human plasma; assay type: in vitro ADME; settings: undiluted plasma
[3] = Plasma protein binding, mouse plasma; assay type: in vitro ADME; settings: mouse, plasma, mouse plasma protein binding; read-out: PPB (m) (converted)
in vitro [4] = settings: mouse, plasma
[5] = biological target: T1, recombinant human CD73 (hCD73) (Homo sapiens, UniProt P21589); test: CD73 activity assay on recombinant human CD73; assay type: biochemical; settings: ΔGexp = RT ln Ki
T1 sequence (P21589 27-574): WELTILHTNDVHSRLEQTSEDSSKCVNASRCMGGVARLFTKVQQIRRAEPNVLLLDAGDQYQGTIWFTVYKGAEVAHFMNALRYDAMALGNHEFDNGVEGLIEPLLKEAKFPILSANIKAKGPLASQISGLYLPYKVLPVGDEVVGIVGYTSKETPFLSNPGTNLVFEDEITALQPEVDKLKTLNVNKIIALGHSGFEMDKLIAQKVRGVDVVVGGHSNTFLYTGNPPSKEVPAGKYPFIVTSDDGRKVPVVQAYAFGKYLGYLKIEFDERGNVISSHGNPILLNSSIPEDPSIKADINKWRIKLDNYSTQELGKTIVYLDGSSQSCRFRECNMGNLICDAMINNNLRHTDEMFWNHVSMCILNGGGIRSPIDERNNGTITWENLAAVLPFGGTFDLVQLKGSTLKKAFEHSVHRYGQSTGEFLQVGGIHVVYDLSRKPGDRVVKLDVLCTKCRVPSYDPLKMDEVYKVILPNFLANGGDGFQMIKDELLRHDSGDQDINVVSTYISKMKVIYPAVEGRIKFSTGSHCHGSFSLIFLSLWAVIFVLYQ

[6] = Microsomal stability assay, mouse liver microsomes; assay type: in vitro ADME; settings: for Mics (m) comp remaining 60 min: 10 μM; for microsomal CLint at 10 µM: pooled liver microsomes, pH 7.4, read-out: Mics (m) CLint
in vitro [7] = settings: human, plasma
[8] = In vivo pharmacokinetic study, intravenous; design: species or system male CD-1 mice; settings: plasma, 1 mg/kg, intravenous
Experimental: The pharmacokinetic study was performed by Bienta (Enamine Biology Services) using male CD-1 mice (3 animals, 9 weeks old, body weight ranging from 29.2 to 33.7 g) following intravenous administration. Levels of the test compound were determined by LC-MS/MS in blood plasma over time (seven sampling time points: 5, 15, 30, 60, 120, 240, and 480 min) after a single dose.
Animal treatment and samples preparation were conducted by the Animal Laboratory personnel at Enamine/Bienta.

[9] = Kinetic solubility in PBS; assay type: physicochemical; settings: phosphate-buffered saline, pH 7.4, aqueous buffer, kinetic from dmso stock
Summary of the method: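 Echo-MS quantitation with calibration from 0.05 to 4 μM, after 1:99 dilution of filtrate into 50% acetonitrile. Filtrate came from a 100 μM PBS (pH 7.4) solution equilibrated 2 h at room temperature with shaking, in duplicate.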

HepG2 = test: In vitro cytotoxic activity; assay type: cell-based; settings: Homo sapiens
Experimental: (§1) All the compounds were also tested for their in vitro cytotoxic activity on a small panel of four cancer cell lines (CCRF-CEM, HepG2, HeLa S3, HL-60) and nonmalignant human dermal fibroblasts (NHDF).

[10] = system: nonmalignant human dermal fibroblasts (NHDF); test: In vitro cytotoxic activity; assay type: cell-based
Experimental: as §1

HL-60 = test: In vitro cytotoxic activity; assay type: cell-based; settings: Homo sapiens
Experimental: as §1

CCRF-CEM = test: In vitro cytotoxic activity; assay type: cell-based; settings: Homo sapiens
Experimental: as §1

HeLa S3 = test: In vitro cytotoxic activity; assay type: cell-based; settings: Homo sapiens
Experimental: as §1

[11] = Tables 1 and 3, human plasma as printed in footnote, read-out: fup, fraction unbound in human plasma
[12] = human plasma protein binding, read-out: PPB (hu) (converted)

Row | SMILES | microsomal CLint at 10 µM [1] [µL/min/mg] | fraction unbound at 4 h, 100 µM [2, 11] | fraction unbound at 4 h, 100 µM [2, 12] | fraction unbound at 4 h, 100 µM [3] | half-life at 10 µM (in vitro [4]) [h] | dG_exp, experimental binding free energy [5] | Mics (m) comp remaining 60 min [6] [%] | microsomal CLint at 10 µM [6] [µL/min/mg] | half-life at 10 µM (in vitro [7]) [h] | half-life ([8]; male, CD-1, mouse, iv, footnote: t1/2 stability in plasma, text: half-life in mouse PK) [h] | clearance ([8]; mouse, male CD-1 mice, single dose, read-out: Cl (obs), observed clearance) [mL/min/kg] | solubility at 2 h [9] [µM] | IC50 (HepG2) [µM] | IC50 [10] [µM] | IC50 (HL-60) [µM] | IC50 (CCRF-CEM) [µM] | IC50 (HeLa S3) [µM] | Mics (hu) comp remaining 60 min [1] [%]
1 | O=P(O)(O)CP(=O)(O)OC[C@H]1O[C@@H](n2ccc3c(-c4ccnc5ccccc45)ncnc32)[C@H](O)[C@@H]1O [4A.17] | < 1 | 0.8 | 0.257 | 0.8 | > 2 | –14.3 kcal/mol | 79 | 9 | > 2 | 2.15 | 7.2 | > 100 | > 10 | > 10 | > 10 | > 10 | > 10 | –
2 | Cc1nc(-c2ccco2)c2ccn([C@@H]3O[C@H](COP(=O)(O)CP(=O)(O)O)[C@@H](O)[C@H]3O)c2n1 [18E.1] | < 1 | – | 0.069 | 0.816 | > 2 | –13.2 kcal/mol | 96 | 1 | > 2 | – | – | 89 (≈ 43.5 µg/mL) | > 10 | > 10 | > 10 | > 10 | > 10 | 100
3 | Cc1nc(-c2cccc3c2CCCC3)c2ccn([C@@H]3O[C@H](COP(=O)(O)CP(=O)(O)O)[C@@H](O)[C@H]3O)c2n1 [18E.12] | < 1 | – | 0.022 | 0.323 | > 2 | –14.4 kcal/mol | 106 | < 1 | > 2 | – | – | 80 (≈ 44.3 µg/mL) | > 10 | > 10 | > 10 | > 10 | > 10 | 108
4 | COc1nc(-c2ccc3ccccc3c2)c2ccn([C@@H]3O[C@H](COP(=O)(O)CP(=O)(O)O)[C@@H](O)[C@H]3O)c2n1 [21F.7, [(5-{[2-Methoxy-4-(naphthalen-2-yl)-7H-pyrrolo[2,3-d]pyrimidin-7-yl]-β-D-ribofuranosyl}oxy)phosphonomethyl]phosphonic Acid] | < 1 | 0.14 | ≤ 0.01 | 0.136 | > 2 | –13.4 kcal/mol | – | < 1 | > 2 | – | – | 79 (≈ 44.7 µg/mL) | > 10 | > 10 | > 10 | > 10 | > 10 | 104
5 | CNc1nc(-c2ccc3ccccc3c2)c2ccn([C@@H]3O[C@H](COP(=O)(O)CP(=O)(O)O)[C@@H](O)[C@H]3O)c2n1 [22G.7, [(5-{[2-(N-Methylamino)-4-(naphthalen-2-yl)-7H-pyrrolo[2,3-d]pyrimidin-7-yl]-β-D-ribofuranosyl}oxy)phosphonomethyl]phosphonic Acid] | < 1 | 0.11 | ≤ 0.01 | 0.112 | > 2 | –12.7 kcal/mol | – | 3 | > 2 | – | – | 84 (≈ 47.4 µg/mL) | > 10 | > 10 | 8.1 | > 10 | > 10 | 106
6 | O=P(O)(O)CP(=O)(O)OC[C@H]1O[C@@H](n2cnc3c(-c4cccc5c4CCCC5)ncnc32)[C@H](O)[C@@H]1O [31A.12] | < 1 | – | 0.084 | 0.509 | > 2 | –11.8 kcal/mol | 88 | 6 | > 2 | – | – | 80 (≈ 43.2 µg/mL) | > 10 | > 10 | > 10 | > 10 | > 10 | 102
